Earlier results as cited in patent publication US9023853B2, “Janus kinase 2 (JAK2) inhibitor for the treatment of lupus” (Cephalon, Inc., priority 2010, dated 2015).
Read-outs that look alike come from different tables or passages of the source.

Details: cited from earlier work

Structure (SMILES)	effectiveness in rheumatoid arthritis (doses of 5-30 mg twice per day)	effectiveness in rheumatoid arthritis (doses of 4-10 mg once daily)
CC1CCN(C(=O)CC#N)CC1N(C)c1ncnc2[nH]ccc12 (stereo in doubt) [tasocitinib]	effective	
CCS(=O)(=O)N1CC(CC#N)(n2cc(-c3ncnc4[nH]ccc34)cn2)C1 [INCB028050]		effective
